Assay results from the NIST ThermoML archive (doi:10.1016/j.jct.2017.03.026).
Several values for one entry are separate records, joined by “and”; a condition that tells them apart may be missing. Equal entries are not always repeated.

Experiment: molar heat capacity at constant pressure
Details: 101.33 kPa, Crystal, Small (less than 1 g) adiabatic calorimetry

O.O.O.O.O.O=S(=O)([O-])[O-].[Cu+2] [copper(II) sulfate pentahydrate]
Details | molar heat capacity at constant pressure
147.86 K | 165.08 J/K/mol
148.14 K | 163.74 J/K/mol
148.35 K | 165.5 J/K/mol
148.79 K | 165.6 J/K/mol
148.94 K | 165.94 J/K/mol
149.18 K | 164.71 J/K/mol
149.89 K | 165.56 J/K/mol
150 K | 165.6 J/K/mol
150.02 K | 166.77 J/K/mol
150.23 K | 165.8 J/K/mol
150.52 K | 166.26 J/K/mol
150.77 K | 167.63 J/K/mol
151.09 K | 168 J/K/mol
151.27 K | 167.02 J/K/mol
151.52 K | 168.7 J/K/mol
151.97 K | 167.63 J/K/mol
152.1 K | 169 J/K/mol
152.17 K | 169.13 J/K/mol
152.32 K | 167.82 J/K/mol
153.24 K | 170.02 J/K/mol
153.38 K | 169.02 J/K/mol
153.43 K | 170.11 J/K/mol
153.64 K | 169.31 J/K/mol
154.06 K | 169.63 J/K/mol
154.32 K | 171.06 J/K/mol
154.42 K | 169.98 J/K/mol
154.7 K | 171.74 J/K/mol
154.77 K | 171.25 J/K/mol
155.4 K | 172.12 J/K/mol
155.47 K | 171.07 J/K/mol
156.1 K | 172.57 J/K/mol
156.15 K | 171.68 J/K/mol
156.48 K | 173.12 J/K/mol
156.52 K | 172.03 J/K/mol
156.76 K | 172.32 J/K/mol
157.44 K | 173.97 J/K/mol
157.56 K | 174.08 J/K/mol
157.57 K | 172.98 J/K/mol
157.89 K | 174.79 J/K/mol
158.24 K | 173.62 J/K/mol
158.61 K | 173.88 J/K/mol
158.64 K | 175.11 J/K/mol
158.78 K | 175.17 J/K/mol
159.66 K | 174.82 J/K/mol
159.72 K | 176.1 J/K/mol
159.88 K | 175.23 J/K/mol
160 K | 175.2 J/K/mol
160.11 K | 176.48 J/K/mol
160.32 K | 175.83 J/K/mol
160.71 K | 175.82 J/K/mol
160.81 K | 177.05 J/K/mol
161.09 K | 177.82 J/K/mol
161.48 K | 177.68 J/K/mol
161.75 K | 176.91 J/K/mol
161.89 K | 178.2 J/K/mol
162.41 K | 177.56 J/K/mol
162.8 K | 177.97 J/K/mol
162.82 K | 178.9 J/K/mol
163 K | 179.4 J/K/mol
163.01 K | 178.38 J/K/mol
163.85 K | 178.9 J/K/mol
164.09 K | 180.26 J/K/mol
164.16 K | 180.28 J/K/mol
164.29 K | 180.86 J/K/mol
164.49 K | 179.69 J/K/mol
164.89 K | 179.88 J/K/mol
165.17 K | 181.13 J/K/mol
165.49 K | 181.52 J/K/mol
165.94 K | 180.9 J/K/mol
166.13 K | 181.26 J/K/mol
166.26 K | 182.01 J/K/mol
166.58 K | 181.3 J/K/mol
166.83 K | 182.73 J/K/mol
166.99 K | 181.72 J/K/mol
167.35 K | 183.04 J/K/mol
167.49 K | 183.69 J/K/mol
168.03 K | 182.66 J/K/mol
168.17 K | 183.76 J/K/mol
168.44 K | 184.44 J/K/mol
168.67 K | 183.22 J/K/mol
169.08 K | 183.64 J/K/mol
169.26 K | 184.18 J/K/mol
169.5 K | 184.87 J/K/mol
169.53 K | 185.06 J/K/mol
170 K | 184.5 J/K/mol
170.13 K | 184.56 J/K/mol
170.62 K | 186.24 J/K/mol
170.71 K | 186.66 J/K/mol
170.76 K | 185.15 J/K/mol
170.84 K | 186.28 J/K/mol
171.17 K | 185.59 J/K/mol
171.71 K | 187.47 J/K/mol
172.18 K | 187.68 J/K/mol
172.38 K | 187.03 J/K/mol
172.8 K | 188.14 J/K/mol
172.85 K | 187.26 J/K/mol
173.51 K | 188.79 J/K/mol
173.89 K | 188.9 J/K/mol
173.93 K | 189.4 J/K/mol
174.85 K | 189.91 J/K/mol
174.95 K | 188.94 J/K/mol
174.98 K | 190 J/K/mol
175.51 K | 189.78 J/K/mol
176.07 K | 191.28 J/K/mol
176.18 K | 191.23 J/K/mol
177.04 K | 190.61 J/K/mol
177.15 K | 192.53 J/K/mol
177.16 K | 191.97 J/K/mol
177.52 K | 192.4 J/K/mol
178.25 K | 192.97 J/K/mol
178.63 K | 192.28 J/K/mol
178.85 K | 193.69 J/K/mol
179.13 K | 192.37 J/K/mol
179.35 K | 194.03 J/K/mol
180 K | 193.2 J/K/mol
180.19 K | 194.75 J/K/mol
180.42 K | 195.75 J/K/mol
180.47 K | 195.63 J/K/mol
181.21 K | 194.29 J/K/mol
181.52 K | 196.05 J/K/mol
181.57 K | 196.1 J/K/mol
181.75 K | 194.99 J/K/mol
182.67 K | 197.05 J/K/mol
182.89 K | 197.45 J/K/mol
183.3 K | 195.97 J/K/mol
183.65 K | 198.96 J/K/mol
183.77 K | 198.41 J/K/mol
184.23 K | 198.67 J/K/mol
184.86 K | 199.51 J/K/mol
184.87 K | 197.91 J/K/mol
185.39 K | 197.77 J/K/mol
185.55 K | 200.51 J/K/mol
185.95 K | 200.62 J/K/mol
186.89 K | 201.62 J/K/mol and 202.38 J/K/mol
187.05 K | 201.82 J/K/mol
187.48 K | 199.99 J/K/mol
187.99 K | 200.27 J/K/mol
188.14 K | 203.75 J/K/mol
188.22 K | 203.53 J/K/mol
189.25 K | 204.46 J/K/mol
189.56 K | 204.62 J/K/mol
189.57 K | 201.44 J/K/mol
190 K | 201.9 J/K/mol
190.12 K | 206.13 J/K/mol
190.35 K | 205.41 J/K/mol
190.88 K | 206.97 J/K/mol
191.11 K | 202.91 J/K/mol
191.45 K | 206.67 J/K/mol
191.66 K | 203.21 J/K/mol
192.21 K | 207.95 J/K/mol
192.55 K | 207.97 J/K/mol
193.37 K | 209.23 J/K/mol
193.55 K | 208.35 J/K/mol
193.65 K | 208.94 J/K/mol
193.74 K | 205.3 J/K/mol
194.23 K | 206.14 J/K/mol
194.75 K | 209.89 J/K/mol
194.87 K | 210.1 J/K/mol
195.83 K | 207.12 J/K/mol
